# From US9018208B2, “Heterocycles as potassium channel modulators” (Icagen Inc., priority 2007, dated 2015)
# System: SH-SY5Y M-currents (KCNQ2, KCNQ3 and KCNQ5)
# Experiment: SH-SY5Y native cell line FLIPR assay (voltage-sensitive dye DiBAC)
# Format: cell-based, mouse neuroblastoma, rat glioma hybrid cell line
# Details: FLIPR assay, SH-SY5Y native cell line; Table 2; read-out: SH-SY5Y EC50
# Procedure, shortened: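 Response is peak DiBAC fluorescence change, normalised to the maximum from a positive control agent, sampled every 30 s over 25 min. Before compound addition, SH-SY5Y cells differentiated with PGE1 plus isomethylbutylxanthine were dye-loaded for 1 h in EBSS with […] DiBAC.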
row,EC50 [nM],SMILES
1,500 to 3000,"O=C(CC1CCCC1)Nc1nc2ccccn2c1-c1ccc(F)cc1 [Compound 222, 2-cyclopentyl-N-(3-(4-fluorophenyl)imidazo[1,2-a]pyridin-2-yl)acetamide]"
2,< 500,"CC(C)(C)CC(=O)Nc1nc2ccccn2c1-c1ccc(C(F)(F)F)cc1 [Compound 223, 3,3-dimethyl-N-(3-(4-(trifluoromethyl)phenyl)imidazo[1,2-a]pyridin-2-yl)butanamide]"
3,< 500,"O=C(CC1CCCC1)Nc1nc2ccccn2c1-c1ccc(C(F)(F)F)cc1 [Compound 224, 2-cyclopentyl-N-(3-(4-(trifluoromethyl)phenyl)imidazo[1,2-a]pyridin-2-yl)acetamide]"
4,< 500,"O=C(Cc1ccc(F)cc1)Nc1nc2ccc(F)cn2c1-c1cc(F)cc(F)c1 [Compound 229, N-(3-(3,5-difluorophenyl)-6-fluoroimidazo[1,2-a]pyridin-2-yl)-2-(4-fluorophenyl)acetamide]"
5,3000 to 10000,"O=C(COc1ccccc1)Nc1nc2ccc(F)cn2c1-c1ccc(OC(F)(F)F)cc1 [Compound 231, N-(6-fluoro-3-(4-(trifluoromethoxy)phenyl)imidazo[1,2-a]pyridin-2-yl)-2-phenoxyacetamide]"
6,< 500,"CC(C)(C)CC(=O)Nc1nc2cc(Cl)c(Cl)cn2c1-c1ccc(C(F)(F)F)cc1 [Compound 233, N-(6,7-dichloro-3-(4-(trifluoromethyl)phenyl)imidazo[1,2-a]pyridin-2-yl)-3,3-dimethylbutanamide]"
7,< 500,"CC(C(=O)Nc1nc2ccc(F)cn2c1-c1ccc(OC(F)(F)F)cc1)C(C)(C)C (stereo not shown) [Compound 235, N-(6-fluoro-3-(4-(trifluoromethoxy)phenyl)imidazo[1,2-a]pyridin-2-yl)-2,3,3-trimethylbutanamide]"
8,< 500,"O=C(Cc1ccc(F)cc1)Nc1nc2cc(Cl)c(Cl)cn2c1-c1ccc(C(F)(F)F)cc1 [Compound 236, N-(6,7-dichloro-3-(4-(trifluoromethyl)phenyl)imidazo[1,2-a]pyridin-2-yl)-2-(4-fluorophenyl)acetamide]"
9,< 500,"O=C(Cc1ccc(Cl)cc1)Nc1nc2ccc(F)cn2c1-c1ccc(OC(F)(F)F)cc1 [Compound 238, 2-(4-chlorophenyl)-N-(6-fluoro-3-(4-(trifluoromethoxy)phenyl)imidazo[1,2-a]pyridin-2-yl)acetamide]"
10,< 500,"O=C(Cc1ccc(F)c(F)c1)Nc1nc2ccc(F)cn2c1-c1ccc(OC(F)(F)F)cc1 [Compound 241, 2-(3,4-difluorophenyl)-N-(6-fluoro-3-(4-(trifluoromethoxy)phenyl)imidazo[1,2-a]pyridin-2-yl)acetamide]"
11,3000 to 10000,"O=C(Nc1nc2ccc(F)cn2c1-c1ccc(OC(F)(F)F)cc1)[C@@H]1CCCO1 [Compound 244, (S)—N-(6-fluoro-3-(4-(trifluoromethoxy)phenyl)imidazo[1,2-a]pyridin-2-yl)tetrahydrofuran-2-carboxamide]"
12,500 to 3000,"COc1ccn2c(-c3ccc(C(F)(F)F)cc3)c(NC(=O)CC(C)(C)C)nc2c1 [Compound 245, N-(7-methoxy-3-(4-(trifluoromethyl)phenyl)imidazo[1,2-a]pyridin-2-yl)-3,3-dimethylbutanamide]"
13,< 500,"CC(C)C(C)C(=O)Nc1nc2ccc(F)cn2c1-c1ccc(OC(F)(F)F)cc1 (stereo not shown) [Compound 249, N-(6-fluoro-3-(4-(trifluoromethoxy)phenyl)imidazo[1,2-a]pyridin-2-yl)-2,3-dimethylbutanamide]"
14,500 to 3000,"O=C(CC1CCOCC1)Nc1nc2ccc(F)cn2c1-c1ccc(OC(F)(F)F)cc1 [Compound 251, N-(6-fluoro-3-(4-(trifluoromethoxy)phenyl)imidazo[1,2-a]pyridin-2-yl)-2-(tetrahydro-2H-pyran-4-yl)acetamide]"
15,3000 to 10000,"CO[C@@H](C(=O)Nc1nc2ccc(F)cn2c1-c1ccc(OC(F)(F)F)cc1)c1ccccc1 [Compound 253, (R)—N-(6-fluoro-3-(4-(trifluoromethoxy)phenyl)imidazo[1,2-a]pyridin-2-yl)-2-methoxy-2-phenyl acetamide]"
16,3000 to 10000,"CO[C@H](C(=O)Nc1nc2ccc(F)cn2c1-c1ccc(OC(F)(F)F)cc1)c1ccccc1 [Compound 254, (S)—N-(6-fluoro-3-(4-(trifluoromethoxy)phenyl)imidazo[1,2-a]pyridin-2-yl)-2-methoxy-2-phenyl acetamide]"
17,< 500,"Cc1cc(-c2c(NC(=O)CC(C)(C)C)nc3ccc(F)cn23)ccc1F [Compound 255, N-(6-fluoro-3-(4-fluoro-3-methylphenyl)imidazo[1,2-a]pyridin-2-yl)-3,3-dimethylbutanamide]"
18,< 500,"Cc1cc(-c2c(NC(=O)CC(C)(C)C)nc3ccc(F)cn23)ccc1Cl [Compound 257, N-(3-(4-chloro-3-methylphenyl)-6-fluoroimidazo[1,2-a]pyridin-2-yl)-3,3-dimethylbutanamide]"
19,< 500,"Cc1ccc(-c2c(NC(=O)CC(C)(C)C)nc3ccc(F)cn23)cc1Cl [Compound 258, N-(3-(3-chloro-4-methylphenyl)-6-fluoroimidazo[1,2-a]pyridin-2-yl)-3,3-dimethylbutanamide]"

# The remaining lines, values behind:
row,SMILES,EC50 [nM]
1,"O=C(CCC1CCCC1)Nc1nc2ccc(F)cn2c1-c1ccc(C(F)(F)F)cc1 [Compound 220, 3-cyclopentyl-N-(6-fluoro-3-(4-(trifluoromethyl)phenyl)imidazo[1,2-a]pyridin-2-yl)propanamide]",< 500
2,"CC(C)(C)CC(=O)Nc1nc2ccccn2c1-c1ccc(F)cc1 [Compound 221, N-(3(4-fluorophenyl)imidazo[1,2-a]pyridin-2-yl)-3,3-dimethylbutanamide]",500 to 3000
3,"O=C(CC1CCCC1)Nc1nc2ccccn2c1-c1ccc(OC(F)(F)F)cc1 [Compound 226, 2-cyclopentyl-N-(3-(4-(trifluoromethoxy)phenyl)imidazo[1,2-a]pyridin-2-yl)acetamide]",< 500
4,"CC(C)(C)CC(=O)Nc1nc2ccc(F)cn2c1-c1cc(F)cc(F)c1 [Compound 227, N-(3-(3,5-difluorophenyl)-6-fluoroimidazo[1,2-a]pyridin-2-yl)-3,3-dimethylbutanamide]",< 500
5,"O=C(Cc1ccccc1)Nc1nc2ccc(F)cn2c1-c1cc(F)cc(F)c1 [Compound 228, N-(3-(3,5-difluorophenyl)-6-fluoroimidazo[1,2-a]pyridin-2-yl)-2-phenylacetamide]",< 500
6,"CC(CC(=O)Nc1nc2ccc(F)cn2c1-c1cc(F)cc(F)c1)C(F)(F)F (stereo not shown) [Compound 230, N-(3-(3,5-difluorophenyl)-6-fluoroimidazo[1,2-a]pyridin-2-yl)-4,4,4-trifluoro-3-methylbutanamide]",500 to 3000
7,"CC(Oc1ccccc1)C(=O)Nc1nc2ccc(F)cn2c1-c1ccc(OC(F)(F)F)cc1 (stereo not shown) [Compound 232, N-(6-fluoro-3-(4-(trifluoromethoxy)phenyl)imidazo[1,2-a]pyridin-2-yl)-2-phenoxypropanamide]",3000 to 10000
8,"CC(C(=O)Nc1nc2ccc(F)cn2c1-c1ccc(C(F)(F)F)cc1)C(C)(C)C (stereo not shown) [Compound 234, N-(6-fluoro-3-(4-(trifluoromethyl)phenyl)imidazo[1,2-a]pyridin-2-yl)-2,3,3-trimethylbutanamide]",< 500
9,"O=C(COCc1ccccc1)Nc1nc2ccc(F)cn2c1-c1ccc(OC(F)(F)F)cc1 [Compound 237, 2-(benzyloxy)-N-(6-fluoro-3-(4-(trifluoromethoxy)phenyl)imidazo[1,2-a]pyridin-2-yl)acetamide]",3000 to 10000
10,"O=C(Cc1cccc(F)c1)Nc1nc2ccc(F)cn2c1-c1ccc(OC(F)(F)F)cc1 [Compound 240, N-(6-fluoro-3-(4-(trifluoromethoxy)phenyl)imidazo[1,2-a]pyridin-2-yl)-2-(3-fluorophenyl)acetamide]",< 500
11,"O=C(Cc1cc(F)cc(F)c1)Nc1nc2ccc(F)cn2c1-c1ccc(OC(F)(F)F)cc1 [Compound 242, 2-(3,5-difluorophenyl)-N-(6-fluoro-3-(4-(trifluoromethoxy)phenyl)imidazo[1,2-a]pyridin-2-yl)acetamide]",< 500
12,"O=C(Nc1nc2ccc(F)cn2c1-c1ccc(OC(F)(F)F)cc1)[C@H]1CCCO1 [Compound 243, (R)—N-(6-fluoro-3-(4-(trifluoromethoxy)phenyl)imidazo[1,2-a]pyridin-2-yl)tetrahydrofuran-2-carboxamide]",3000 to 10000
13,"COc1ccn2c(-c3ccc(C(F)(F)F)cc3)c(NC(=O)Cc3ccccc3)nc2c1 [Compound 246, N-(7-methoxy-3-(4-(trifluoromethyl)phenyl)imidazo[1,2-a]pyridin-2-yl)-2-phenylacetamide]",500 to 3000
14,"O=C(COc1ccc(Cl)cc1Cl)Nc1nc2ccc(F)cn2c1-c1ccc(OC(F)(F)F)cc1 [Compound 247, 2-(2,4-dichlorophenoxy)-N-(6-fluoro-3-(4-(trifluoromethoxy)phenyl)imidazo[1,2-a]pyridin-2-yl)acetamide]",3000 to 10000
15,"O=C(Nc1nc2ccc(F)cn2c1-c1ccc(OC(F)(F)F)cc1)C1CCOC1 (stereo not shown) [Compound 248, N-(6-fluoro-3-(4-(trifluoromethoxy)phenyl)imidazo[1,2-a]pyridin-2-yl)tetrahydrofuran-3-carboxamide]",3000 to 10000
16,"O=C(CCOc1ccc(F)cc1)Nc1nc2ccc(F)cn2c1-c1ccc(OC(F)(F)F)cc1 [Compound 250, N-(6-fluoro-3-(4-(trifluoromethoxy)phenyl)imidazo[1,2-a]pyridin-2-yl)-3-(4-fluorophenoxy)propanamide]",500 to 3000
17,"O=C(CC(F)(F)F)Nc1nc2ccc(F)cn2c1-c1ccc(OC(F)(F)F)cc1 [Compound 252, 3,3,3-trifluoro-N-(6-fluoro-3-(4-(trifluoromethoxy)phenyl)imidazo[1,2-a]pyridin-2-yl)propanamide]",< 500
18,"Cc1c(F)ccc(-c2c(NC(=O)CC(C)(C)C)nc3ccc(F)cn23)c1F [Compound 256, N-(3-(2,4-difluoro-3-methylphenyl)-6-fluoroimidazo[1,2-a]pyridin-2-yl)-3,3-dimethylbutanamide]",500 to 3000
